Test: log P by HPLC on a reversed-phase column (C 18), EEC Directive 79/831 Annex V.A8
Format: physicochemical
Conditions: HPLC on reversed-phase column (C 18), 40° C., 0.1% aqueous formic acid and acetonitrile, linear gradient 10% to 90% acetonitrile
Method: In table 1, the log P values were determined in accordance with EEC Directive 79/831 Annex V.A8 by HPLC (High Performance Liquid Chromatography) on a reversed-phase column (C 18), using the method described below: Temperature: 40° C.; Mobile phases: 0.1% aqueous formic acid and acetonitrile; linear gradient from 10% acetonitrile to 90% acetonitrile. Calibration was carried out using unbranched alkan-2-ones (comprising 3 to 16 carbon atoms) with known log P values (determination of the log P values by the retention times using linear interpolation between two successive alkanones). lambda-max-values were determined using UV-spectra from 200 nm to 400 nm and the peak values of the chromatographic signals.

Row | Compound | logP
1 | Cn1nc(C(F)F)c(C(=S)N(Cc2ccccc2-c2ccsc2)C2CC2)c1Cl [I.80] | 4.39
2 | Cn1cc(C(=O)N(Cc2cc(-c3ccsc3)ccc2Cl)C2CC2)c(C(F)F)c1 [I.92] | 4.06
3 | Cn1nc(C(F)F)c(C(=O)N(Cc2ccccc2C23CCCC2O3)C2CC2)c1F (stereo not shown) [I.19] | 3.12
4 | O=C(c1ccsc1I)N(Cc1cc(-c2ccsc2)ccc1Cl)C1CC1 [I.89] | 4.78
5 | COc1ccsc1-c1ccc(C)cc1CN(C(=O)c1c(C(F)F)nn(C)c1F)C1CC1C (stereo not shown) [I.127] | 4.21
6 | Cn1nc(C(F)F)c(C(=O)N(Cc2ccccc2OC2CCOCC2)C2CC2)c1F [I.169] | 2.80
7 | Cc1nn(C)c(C)c1-c1ccc(C(C)C)c(CN(C(=O)c2c(C(F)F)nn(C)c2F)C2CC2)c1 [I.118] | 3.23
8 | Cc1cscc1-c1ccc(C(C)C)c(CN(C(=O)c2c(C(F)F)nn(C)c2F)C2CC2)c1 [I.110] | 4.72
9 | Cn1nc(C(F)F)c(C(=O)N(Cc2c(C3(C)CO3)ccc(Cl)c2Cl)C2CC2)c1F (stereo not shown) [I.9] | 3.55
10 | Cn1cc(C(=O)N(Cc2ccccc2-c2ccco2)C2CC2)c(C(F)F)c1 [I.42] | 3.44
11 | Cc1ccc(-c2ccn(C)c2)c(CN(C(=O)c2c(C(F)F)nn(C)c2F)C2CC2)c1 [I.51] | 3.55
12 | Cc1ccc(-c2c(C)nn(C)c2C)c(CN(C(=O)c2c(C(F)F)nn(C)c2F)C2CC2)c1 [I.115] | 2.71
13 | O=C(c1ccsc1I)N(Cc1ccccc1-c1ccco1)C1CC1 [I.33] | 4.01
14 | Cc1nc(C(F)F)c(C(=O)N(Cc2cc(-c3cccs3)ccc2Cl)C2CC2)s1 [I.97] | 4.26
15 | Cn1nc(C(F)F)c(C(=S)N(Cc2ccccc2-c2ccc(Cl)s2)C2CC2)c1Cl [I.142] | 5.19
16 | Cc1ccc(-c2cnn(C)c2)c(CN(C(=O)c2c(C(F)F)nn(C)c2F)[C@@H]2C[C@H]2C)c1 (relative stereo) [I.63] | 2.82
17 | Cc1nc(C(F)F)c(C(=O)N(Cc2cc(-c3ccc(Cl)s3)ccc2Cl)C2CC2)s1 [I.151] | 5.00
18 | Cc1ccc(-c2c(C)nn(C)c2C)c(CN(C(=O)c2cn(C)nc2C(F)F)C2CC2)c1 [I.116] | 2.45
19 | Cn1nc(C(F)F)c(C(=O)N(Cc2c(C3(C)CO3)ccc(Cl)c2F)C2CC2)c1Cl (stereo not shown) [I.10] | 3.37
20 | Cn1nc(C(F)F)c(C(=O)N(Cc2cc(C34CCCC3O4)ccc2Cl)C2CC2)c1F (stereo not shown) [I.17] | 3.59
21 | Cc1ccc(-c2cscc2C)c(CN(C(=O)c2c(C(F)F)nn(C)c2Cl)C2CC2)c1 [I.107] | 4.41
22 | CC(C)c1ccc(-c2cn(C)c3ccccc23)cc1CN(C(=O)c1c(C(F)F)nn(C)c1F)C1CC1 [I.153] | 4.74
23 | O=C(c1ccsc1I)N(Cc1cc(-c2ccco2)ccc1Cl)C1CC1 [I.41] | 4.61
24 | Cc1ccc(-c2csc3ccccc23)c(CN(C(=O)c2cn(C)nc2C(F)F)C2CC2C)c1 (stereo not shown) [I.165] | 4.46

Further lines, results first:

Row | logP | Compound
25 | 3.67 | Cn1nc(C(F)F)c(C(=O)N(Cc2c(C3(C)CO3)ccc(Cl)c2Cl)C2CC2)c1Cl (stereo not shown) [I.11]
26 | 4.92 | Cc1ccc(-c2csc3ccccc23)c(CN(C(=O)c2c(C(F)F)nn(C)c2F)C2CC2C)c1 (stereo not shown) [I.166]
27 | 1.56 | Cn1nc(C(F)F)c(C(=O)N(Cc2ccccc2C2COC2)C2CC2)c1Cl [I.2]
28 | 3.99 | Cc1nc(C(F)F)c(C(=O)N(Cc2cc(-c3ccco3)ccc2Cl)C2CC2)s1 [I.46]
29 | 3.17 | Cc1ccc(C2(C)CO2)c(CN(C(=O)c2c(C(F)F)nn(C)c2F)C2CC2)c1F (stereo not shown) [I.12]
30 | 5.05 | Cc1ccc(-c2csc3ccccc23)c(CN(C(=O)c2c(C(F)F)nn(C)c2Cl)C2CC2C)c1 (stereo not shown) [I.167]
31 | 3.94 | Cn1nc(C(F)F)c(C(=O)N(Cc2ccccc2C23CCCCCC2O3)C2CC2)c1F (stereo not shown) [I.26]
32 | 3.46 | COc1ccsc1-c1ccc(C)cc1CN(C(=O)c1cn(C)nc1C(F)F)C1CC1 [I.124]
33 | 4.16 | Cn1cc(C(=O)N(Cc2cc(-c3cccs3)ccc2Cl)C2CC2)c(C(F)F)c1 [I.90]
34 | 4.44 | Cn1nc(C(F)F)c(C(=O)N(Cc2cc(Cl)ccc2C23CCCCCC2O3)C2CC2)c1F (stereo not shown) [I.25]
35 | 4.16 | Cn1nc(C(F)F)c(C(=O)N(Cc2cc(-c3ccsc3)ccc2Cl)C2CC2)c1Cl [I.94]
36 | 2.86 | Cc1ccc(-c2cnn(C)c2)c(CN(C(=O)c2c(C(F)F)nn(C)c2Cl)[C@@H]2C[C@H]2C)c1 (relative stereo) [I.64]
37 | 4.41 | COc1ccsc1-c1ccc(C)cc1CN(C(=O)c1c(C(F)F)nn(C)c1Cl)C1CC1C (stereo not shown) [I.128]
38 | 5.68 | O=C(c1ccsc1I)N(Cc1cc(Cl)ccc1-c1ccc(Cl)s1)C1CC1 [I.147]
39 | 4.98 | Cc1ccc(-c2csc3ccccc23)c(CN(C(=O)c2c(C(F)F)nn(C)c2F)C2CC2C)c1 (stereo not shown) [I.163]
40 | 4.14 | Cc1nc(C(F)F)c(C(=O)N(Cc2cc(-c3ccsc3)ccc2Cl)C2CC2)s1 [I.96]
41 | 3.83 | Cc1ccc(-c2cscc2C)c(CN(C(=O)c2cn(C)nc2C(F)F)C2CC2)c1 [I.109]
42 | 4.44 | Cc1ccc(-c2ccsc2Cl)c(CN(C(=O)c2c(C(F)F)nn(C)c2Cl)C2CC2)c1 [I.148]
43 | 3.25 | Cc1ccc(CN(C(=O)c2c(C(F)F)nn(C)c2F)C2CC2)c(C2(C)OCCO2)c1 [I.21]
44 | 3.85 | Cc1ccc(-c2ccsc2Cl)c(CN(C(=O)c2cn(C)nc2C(F)F)C2CC2)c1 [I.149]
45 | 3.99 | Cn1nc(C(F)F)c(C(=O)N(Cc2cc(C34CCCCC3O4)ccc2Cl)C2CC2)c1F (stereo not shown) [I.22]

Same assay, conditions: logP

Row | chromatographic logP | Compound
46 | 3.46 | CC(C)c1ccc(Cl)cc1CNC(=O)c1c(C(F)F)nn(C)c1F [Xa.1, N-(5-chloro-2-isopropylbenzyl)-3-(difluoromethyl)-5-fluoro-1-methyl-1H-pyrazole-4-carboxamide]
47 | 3.96 | C=C(C)c1ccc(Cl)cc1CN(C(=O)c1c(C(F)F)nn(C)c1F)C1CC1 [N-[5-chloro-2-(prop-1-en-2-yl)benzyl]-N-cyclopropyl-3-(difluoromethyl)-5-fluoro-1-methyl-1H-pyrazole-4-carboxamide]

Same assay, conditions: reversed-phase HPLC column (C 18), HPLC, C 18, 40° C., 0.1% aqueous formic acid and acetonitrile; read-out: logP

Row | Compound | chromatographic logP
48 | Clc1ccc(-c2ccc(Cl)s2)c(CNC2CC2)c1 [IIa.7, N-[5-chloro-2-(5-chloro-2-thienyl)benzyl]cyclopropanamine] | 1.51
49 | Clc1ccc(-c2cccs2)cc1CNC1CC1 [IIb.2, N-[2-chloro-5-(2-thienyl)benzyl]cyclopropanamine] | 1.29
50 | Clc1ccc(-c2ccccc2CNC2CC2)s1 [IIa.6, N-[2-(5-chloro-2-thienyl)benzyl]cyclopropanamine] | 1.28
51 | Clc1ccc(-c2ccsc2)cc1CNC1CC1 [IIb.3, N-[2-chloro-5-(3-thienyl)benzyl]cyclopropanamine] | 1.28

Next, values leading:

Row | chromatographic logP | Compound
52 | 0.99 | Clc1ccc(-c2ccco2)c(CNC2CC2)c1 [IIa.1, N-[5-chloro-2-(2-furyl)benzyl]cyclopropanamine]
53 | 1.58 | Clc1ccc(-c2ccc(Cl)c(CNC3CC3)c2)s1 [IIb.4, N-[2-chloro-5-(5-chloro-2-thienyl)benzyl]cyclopropanamine]
54 | 1.1 | Clc1ccc(-c2cccs2)c(CNC2CC2)c1 [IIa.2, N-[5-chloro-2-(2-thienyl)benzyl]cyclopropanamine]
55 | 4.06 | CC(C)c1ccc(Cl)cc1CN(C(=O)c1c(C(F)F)nn(C)c1F)C1CC1 [N-(5-chloro-2-isopropylbenzyl)-N-cyclopropyl-3-(difluoromethyl)-5-fluoro-1-methyl-1H-pyrazole-4-carboxamide]

Reference: patent publication US10125126B2, “N-cycloalkyl-N-[(heterocyclylphenyl)methylene]-(thio)carboxamide derivatives” (BAYER CROPSCIENCE AG, priority 2012, dated 2018)
